From US6544524B2, “Ethyl acetate extract from guignardia used to treat an individual infected by fungi or bacteria” (Fundacao Oswaldo Cruz - FIOCRUZ, priority 2001, dated 2003) come the findings set out here.

The test system of test [1] is Escherichia coli (ATCC 25922). Nature of the test: bioautographical method on a layer of agar. The test is classed as cell-based. As to conditions: against E. coli; Mueller-Hinton agar, 37° C., 24 hours, MTT. As for the experimental part:
(§1) The antimicrobial activity of this compound was detected employing the bioautographical method on a layer of agar (Rahalison,L.; Hamburger, M., Hostettmann, K.; Monod, M.; Frenk, E. Phytochemical Ananlysis.2.199-203.1991). The following micro-organisms were tested: Escherichia coli (ATCC 25922) and Staphylococcus aureus (ATCC 25923). The medium used was the Mueller-Hinton in agar (Oxoid). The cultures grew during the night in nutrient medium broth number 3 (Fluka). For the bioautographic test the cultures were standardised through successive dilutions in 10^5 cells/ml. The plaques were incubated at 37° C. for a period of 24 hours, sprayed with an aqueous solution of Methylthiazolyltetrazolium chloride (MTT)at 0.25% and then incubated for a further two hours at 37° C. The active fractions were detected under the form of white areas of inhibition on a lilac background.

The subject of test [2] is Staphylococcus aureus (ATCC 25923). Nature of the test: bioautographical method on a layer of agar. In kind it is cell-based. As to conditions: against S. aureus; Mueller-Hinton agar, 37° C., 24 hours, MTT. As for the experimental part:
as §1

In the case of `CC(C)C1(C(=O)O)OC(=O)/C(=C/c2ccccc2)O1` (centres unmarked) [compound of the invention, (Z)-5-benzylidene-2-isopropyl-4-oxo-1.3-dioxolane-2-carboxyl acid], the antibacterial activity in test [1] came out at 150 nM; in test [2] it was 75 nM.
